{"source": "patent US10221138B2", "about": "“Biaryl derivatives as GPR120 agonists” (LG CHEM, LTD., priority 2013, dated 2019)"}
{"target": "T1, hGPR120 (Homo sapiens, UniProt Q5NUL3)", "T1 construct": "expressed in transfected cells; host or cells: CHO-K1", "T1 sequence (Q5NUL3 1-361)": "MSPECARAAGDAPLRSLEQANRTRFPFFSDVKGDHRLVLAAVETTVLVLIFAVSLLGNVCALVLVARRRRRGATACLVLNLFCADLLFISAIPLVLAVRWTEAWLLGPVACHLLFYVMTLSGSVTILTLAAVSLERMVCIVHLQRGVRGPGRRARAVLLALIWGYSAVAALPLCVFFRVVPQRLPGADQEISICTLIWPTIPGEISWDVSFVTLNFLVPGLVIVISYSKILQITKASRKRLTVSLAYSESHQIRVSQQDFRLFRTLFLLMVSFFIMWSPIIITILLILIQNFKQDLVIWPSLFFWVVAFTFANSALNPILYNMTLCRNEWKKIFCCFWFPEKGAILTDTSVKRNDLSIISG", "assay": "Measurement of activity of GPR120 agonist (cell-based calcium fluorescence assay)", "conditions": "CHO-K1 cells expressing Ga16 and hGPR120, Calcium 5 dye fluorescence; activity class; read-out: EC50", "method_in_brief": "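CHO-K1 cells co-expressing Gα16 and hGPR120, plated 18 h, loaded with Calcium 5 dye for 1 h at 37 °C, then given serially diluted agonists (final 0.5% DMSO). Fluorescence increase expressed as relative % of the 1% DMSO-only signal.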", "units": {"EC50": "nM"}}
{"smiles": "CC(C)Oc1cccc(-c2cc(F)c(OCCCCC(=O)O)c(F)c2)n1", "note": "[Example 238, 5-[2,6-difluoro-4-(6-isopropoxy-2-pyridyl)phenoxy]pentanoic acid]", "EC50": "< 200"}
{"smiles": "O=C(O)CCCOc1c(F)cc(-c2ccccc2C2CCCC2)cc1F", "note": "[Example 104, 4-[4-(2-cyclopentylphenyl)-2,6-difluoro-phenoxy]butanoic acid]", "EC50": "< 200"}
{"smiles": "O=C(O)CCCOc1c(F)cc(-c2cccc(Nc3ccccc3)n2)cc1F", "note": "[Example 16, 4-[4-(6-anilino-2-pyridyl)-2,6-difluoro-phenoxy]butyric acid]", "EC50": "200 to 2000"}
{"smiles": "O=C(O)CCCCSc1c(F)cc(-c2cccnc2OC2CCCC2)cc1F", "note": "[Example 252, 5-[4-(2-cyclopentyloxy-pyridin-3-yl)-2,6-difluoro-phenylsulfanyl]-pentanoic acid]", "EC50": "< 200"}
{"smiles": "CCCSc1ncccc1-c1cc(F)c(SCCCC(=O)O)c(F)c1", "note": "[Example 168, 4-[2,6-difluoro-4-(2-propylsulfanyl-pyridin-3yl)-phenylsulfanyl]-butyric acid]", "EC50": "< 200"}
{"smiles": "O=C(O)CCCCCOc1c(F)cc(-c2cccnc2OCC2CC2)cc1F", "note": "[Example 273, 6-[4-[2-(cyclopropylmethoxy)-3-pyridyl]-2,6-difluoro-phenoxy]hexanoic acid]", "EC50": "200 to 2000"}
{"smiles": "COCCOc1ncccc1-c1cc(F)c(OCCCC(=O)O)c(F)c1", "note": "[Example 71, 4-{2,6-difluoro-4-[2-(2-methoxy-ethoxy)-pyridin-3-yl]-phenoxy}-butyric acid]", "EC50": "2000 to 20000"}
{"smiles": "O=C(O)CCCCSc1c(F)cc(-c2cccnc2OC2CCC2)cc1F", "note": "[Example 261, 5-[4-(2-cyclobutoxy-pyridin-3-yl)-2,6-difluoro-phenylsulfanyl]-pentanoic acid]", "EC50": "< 200"}
{"smiles": "O=C(O)CCCOc1c(F)cc(-c2ccccc2OC2CCC2)cc1F", "note": "[Example 53, 4-(2′-cyclobutoxy-3,5-difluoro-biphenyl-4-yloxy)-butyric acid]", "EC50": "< 200"}
{"smiles": "O=C(O)CCCSc1ccc(-c2cccc(SC3CCC3)n2)cc1F", "note": "[Example 169, 4-[4-(6-cyclobutylsulfanyl-pyridin-2-yl)-2-fluoro-phenylsulfanyl]-butyric acid]", "EC50": "< 200"}
{"smiles": "Cc1cnn(-c2ncccc2-c2cc(F)c(OCCCC(=O)O)c(F)c2)c1", "note": "[Example 110, 4-[2,6-difluoro-4-[2-(4-methylpyrazol-1-yl)-3-pyridyl]phenoxy]butanoic acid]", "EC50": "> 20000"}
{"smiles": "O=C(O)CCCSc1c(F)cc(-c2cccnc2OC2CCCC2)cc1F", "note": "[Example 145, 4-[4-(2-cyclopentyloxy-pyridin-3-yl)-2,6-difluoro-phenylsulfanyl]-butyric acid]", "EC50": "< 200"}
{"smiles": "O=C(O)CCCSc1ccc(-c2cccnc2NC2CCCC2)cc1F", "note": "[Example 170, 4-[4-(2-cyclopentylamino-pyridin-3-yl)-2-fluoro-phenylsulfanyl]-butyric acid]", "EC50": "< 200"}
{"smiles": "O=C(O)CCCOc1c(F)cc(-c2cccc(CC3CCCC3)c2)cc1F", "note": "[Example 98, 4-[4-[3-(cyclopentylmethyl)phenyl]-2,6-difluoro-phenoxy]butanoic acid]", "EC50": "200 to 2000"}
{"smiles": "O=C(O)CCCOc1ccc(-c2cccc(Oc3ccccc3)n2)cc1", "note": "[Example 1, 4-[4-(6-phenoxy-2-pyridyl)phenoxy]butyric acid]", "EC50": "200 to 2000"}
{"smiles": "CCCOc1cccc(-c2ccc(SCCCC(=O)O)cc2)c1", "note": "[Example 127, 4-(3′-propoxy-biphenyl-4-ylsulfanyl)-butyric acid]", "EC50": "< 200"}
{"smiles": "O=C(O)CCCSc1c(F)cc(-c2cccnc2SC2CCC2)cc1F", "note": "[Example 142, 4-[4-(2-cyclobutylsulfanyl-pyridin-3-yl)-2,6-difluoro-phenylsulfanyl]-butyric acid]", "EC50": "< 200"}
{"smiles": "O=C(O)C1CC1COc1c(F)cc(-c2cccnc2SC2CCC2)cc1F", "note": "(stereo not shown) [Example 60, 2-[4-(2-cyclobutylsulfanyl-pyridin-3-yl)-2,6-difluoro-phenoxymethyl]-cyclopropanecarboxylic acid]", "EC50": "< 200"}
{"smiles": "O=C(O)CCCSc1ccc(-c2cccc(OC3CCCC3)n2)cc1", "note": "[Example 129, 4-[4-(6-cyclopentyloxy-pyridin-2-yl)-phenylsulfanyl]-butyric acid]", "EC50": "200 to 2000"}
{"smiles": "CC#CCOc1ncccc1-c1cc(F)c(OCCCC(=O)O)c(F)c1", "note": "[Example 270, 4-[4-(2-but-2-ynyloxy-pyridin-3-yl)-2,6-difluoro-phenoxy]-butyric acid]", "EC50": "2000 to 20000"}
{"smiles": "O=C(O)CCCSc1c(F)cc(-c2cccc(OC3CCCC3)c2)cc1F", "note": "[Example 122, 4-(3′-cyclopentyloxy-3,5-difluoro-biphenyl-4-ylsulfanyl)-butyric acid]", "EC50": "< 200"}
{"smiles": "O=C(O)CCCSc1ccc(-c2cc(F)ccc2OC2CCCC2)cc1F", "note": "[Example 180, 4-(2′-cyclopentyloxy-3,5′-difluoro-biphenyl-4-ylsulfanyl)-butyric acid]", "EC50": "200 to 2000"}
{"smiles": "O=C(O)CCCSc1c(F)cc(-c2cccc(SC3CCC3)n2)cc1F", "note": "[Example 158, 4-[4-(6-cyclobutylsulfanyl-pyridin-2-yl)-2,6-difluoro-phenylsulfanyl]-butyric acid]", "EC50": "< 200"}
{"smiles": "CCCSc1ncccc1-c1cc(F)c(OCCCCCC(=O)O)c(F)c1", "note": "[Example 64, 6-[2,6-difluoro-4-(2-propylsulfanyl-3-pyridyl)phenoxy]hexanoic acid]", "EC50": "< 200"}
{"smiles": "CC(CCC(=O)O)Oc1c(F)cc(-c2cccnc2SC2CCC2)cc1F", "note": "(stereo not shown) [Example 28, 4-[4-(2-cyclobutylsulfanyl-3-pyridyl)-2,6-difluoro-phenoxy]pentanoic acid]", "EC50": "< 200"}
{"smiles": "CC(C)Sc1ncccc1-c1ccc(SCCCC(=O)O)cc1", "note": "[Example 148, 4-[4-(2-isopropylsulfanyl-pyridin-3-yl)-phenylsulfanyl]-butyric acid]", "EC50": "< 200"}
{"smiles": "CCCSc1ncccc1-c1cc(F)c(SCCCCCC(=O)O)c(F)c1", "note": "[Example 279, 6-[2,6-difluoro-4-(2-propylsulfanyl-pyridin-3-yl)-phenylsulfanyl]-hexanoic acid]", "EC50": "200 to 2000"}
{"smiles": "O=C(O)CCCCOc1c(F)cc(-c2cccnc2OC2CCOCC2)cc1F", "note": "[Example 241, 5-[2,6-difluoro-4-(2-tetrahydropyran-4-yloxy-3-pyridyl)phenoxy]pentanoic acid]", "EC50": "200 to 2000"}
{"smiles": "O=C(O)CCCOc1ccc(-c2ccccc2OCC2CC2)cc1", "note": "[Example 58, 4-(2′-cyclopropylmethoxy-biphenyl-4-yloxy)-butyric acid]", "EC50": "200 to 2000"}
{"smiles": "O=C(O)CCCOc1c(F)cc(-c2cccc(N3CCCCC3)n2)cc1F", "note": "[Example 15, 4-[2,6-difluoro-4-[6-(1-piperidyl)-2-pyridyl]phenoxy]butyric acid]", "EC50": "200 to 2000"}
{"smiles": "O=C(O)CCCCCSc1c(F)cc(-c2cccnc2SC2CCCC2)cc1F", "note": "[Example 277, 6-[4-(2-cyclopentylsulfanyl-pyridin-3-yl)-2,6-difluoro-phenylsulfanyl]-hexanoic acid]", "EC50": "200 to 2000"}
{"smiles": "O=C(O)CCCOc1c(F)cc(-c2ccccc2NCC2CC2)cc1F", "note": "[Example 82, 4-[4-[2-(cyclopropylmethylamino)phenyl]-2,6-difluoro-phenoxy]butanoic acid]", "EC50": "< 200"}
{"smiles": "CCCSc1cccc(-c2cc(F)c(SCCCC(=O)O)c(F)c2)n1", "note": "[Example 141, 4-[2,6-difluoro-4-(6-propylsulfanyl-pyridin-2-yl)-phenylsulfanyl]-butyric acid]", "EC50": "< 200"}
{"smiles": "O=C(O)CCCCCSc1c(F)cc(-c2cccnc2OC2CCCC2)cc1F", "note": "[Example 276, 6-[4-(2-cyclopentyloxy-pyridin-3-yl)-2,6-difluoro-phenylsulfanyl]-hexanoic acid]", "EC50": "200 to 2000"}
{"smiles": "CCCSc1ncccc1-c1ccc(OCCCC(=O)O)cc1", "note": "[Example 51, 4-[4-(2-propylsulfanyl-pyridin-3-yl)-phenoxy]-butyric acid]", "EC50": "< 200"}
{"smiles": "O=C(O)CCCSc1c(F)cc(-c2cccnc2OCC(F)(F)F)cc1F", "note": "[Example 247, 4-{2,6-difluoro-4-[2-(2,2,2-trifluoro-ethoxy)-pyridin-3-yl]-phenylsulfanyl}-butyric acid]", "EC50": "< 200"}
{"smiles": "O=C(O)CCCOc1c(F)cc(-c2ccccc2OCC2CC2)cc1F", "note": "[Example 54, 4-(2′-cyclopropylmethoxy-3,5-difluoro-biphenyl-4-yloxy)-butyric acid]", "EC50": "< 200"}
{"smiles": "O=C(O)CCCCOc1c(F)cc(-c2cccnc2SC2CCC2)cc1F", "note": "[Example 233, 5-[4-(2-cyclobutylsulfanyl-3-pyridyl)-2,6-difluoro-phenoxy]pentanoic acid]", "EC50": "< 200"}
{"smiles": "O=C(O)CCCSc1c(F)cc(-c2cccnc2NCC2CC2)cc1F", "note": "[Example 251, 4-{4-[2-(cyclopropylmethyl-amino)-pyridin-3-yl]-2,6-difluoro-phenylsulfanyl}-butyric acid]", "EC50": "200 to 2000"}
{"smiles": "O=C(O)CCCSc1ccc(-c2cccnc2N2CCCC2)cc1F", "note": "[Example 173, 4-[2-fluoro-4-(2-pyrrolidin-1-yl-pyridin-3-yl)-phenylsulfanyl]-butyric acid]", "EC50": "200 to 2000"}
{"smiles": "O=C(O)CCCOc1ccc(-c2ccccc2Oc2ccccc2)cc1", "note": "[Example 37, 4-(2′-phenoxy-biphenyl-4-yloxy)-butyric acid]", "EC50": "< 200"}
{"smiles": "O=C(O)CCCOc1c(F)cc(-c2cccnc2N2CCOCC2)cc1F", "note": "[Example 111, 4-[2,6-difluoro-4-(2-morpholino-3-pyridyl)phenoxy]butanoic acid]", "EC50": "> 20000"}
{"smiles": "O=C(O)CCCOc1c(F)cc(-c2cccnc2OCCN2CC2)cc1F", "note": "[Example 218, 4-[4-[2-[2-(aziridin-1-yl)ethoxy]-3-pyridyl]-2,6-difluoro-phenoxy]butanoic acid]", "EC50": "> 20000"}
